Results from patent US5434133A, “CNP analog peptides and their use” (Suntory Limited, priority 1991, dated 1995).
Entries after “also recorded” stand apart in the source; their conditions may differ. Where a SMILES comes first, the peptide text is derived from it. Bridges are numbered along the chain shown (N, C = ends). Where no end group is shown, it is not given here.

Tests used:
[1] = test system: cultured vascular smooth muscle cells (VSMC) derived from the aortas of rats; experiment: cGMP producing activity in cultured VSMC (cGMP radioimmunoassay); type: cell-based, rat; details: for cGMP producing activity (in words): comparison with CNP-22 or α-hANP; for cGMP producing activity (% increase for 1 μm): specific activity compared to 1 μm α-hANP (2000 fmol/400000 cells) = 100, peptide at 1 μm
Experimental: 1-1: Measurement of CGMP Producing Activity
The above-mentioned activity of compounds synthesized according to the present invention was measured by the methods of Hirata et al. (Biochem. Biophys. Res. Commun., 128, 538, 1985) and Scarborough et al. (J. Biol. Chem., 261, 12960, 1986). The cells used were cultured vascular smooth muscle cells (hereunder abbreviated as VSMC) derived from the aortas of rats. From 10^-9 to 10^-6 M of α-hANP or a 20 peptide of interest was incubated together with VSMC and the amount cGMP produced was measured by cGMP radioimmunoassay. Percent maximum reactivity for each peptide, with the value of maximum reactivity for α-hANP being taken as 100%, was used as an indicator of activity.

[2] = test system: cultured vascular smooth muscle cells (VSMC) derived from the aortas of rats; experiment: Cell growth suppressing activity: [3H] thymidine uptake (DNA synthesis inhibition) in VSMC; type: cell-based, rat; details: for % Inhibition of 3H-thymidine uptake: 0.1 μm of each peptide, BSMC line stimulated with PDGF (20 ng/ml); for intensity of DNA synthesis / cell growth suppressing action relative to α-hANP: rat VSMC, compared with α-hANP
Experimental: 1-2: Measurement of Cell Growth Suppressing Activity
Cell growth suppressing activity was evaluated in accordance with the method of Kariya et al. (Atherosclerosis, 80, 143-147, 1990) by measuring the uptake of [^3 H] thymidine into cells as an indicator of percent DNA synthesis inhibition using the above-identified VSMC. Cells tuned to a stationary phase were incubated at 37° C. for 14 h with each sample added in the presence of 1% serum or 20 ng/ml of PDGF (platelet derived growth factor). Then, following the addition of 37 kBq/ml of [^3 H] thymidine, the incubation was continued for another 4 h and the radioactivity of [^3 H] thymidine incorporated into the cells was measured. The values of measurement were such that the uptake of [^3 H] thymidine for the case where only 1% serum or PDGF was added in the absence of peptide was taken as 100%, with the percent suppression due to the peptide addition being accordingly calculated.

[3] = test system: cultured vascular smooth muscle cells (VSMC) derived from the aortas of rats; details: Furuya et al. 1990; cited from earlier work

Compound	cGMP producing activity (in words) ([1]; rat VSMC)	cGMP producing activity (% increase for 1 μm) [1] [%]	% Inhibition of 3H-thymidine uptake [2] [%]	intensity of DNA synthesis / cell growth suppressing action relative to α-hANP [2] [times]	increase of intracellular cGMP level in VSMC compared with ANP or BNP [3]	cGMP producing activity relative to α-hANP ([1]; rat VSMC, times as high activity as α-hANP)	suppression of DNA synthesis of rat VSMC (in words) ([2]; FIGS. 2, 3 and 4)
CC[C@H](C)[C@@H]1NC(=O)[C@H](CCCNC(=N)N)NC(=O)[C@H](CC(=O)O)NC(=O)[C@H](CC(C)C)NC(=O)[C@H](CCCCN)NC(=O)CNC(=O)CNC(=O)[C@H](Cc2ccccc2)NC(=O)[C@@H](NC(=O)CNC(=O)[C@H](CCCCN)NC(=O)[C@H](CO)NC(=O)[C@H](CC(C)C)NC(=O)CN)CSSC[C@@H](C(=O)O)NC(=O)CNC(=O)[C@H](CC(C)C)NC(=O)CNC(=O)[C@H](CO)NC(=O)[C@H](CCSC)NC(=O)[C@H](CO)NC(=O)CNC1=O [Compound 6] (H-GLSKGCFGGKLDRIGSMSGLGC-OH; disulfide 6-22)	lower activity than CNP-22 (but higher than that of α-hANP); also recorded: lower in cGMP producing activity than the other one- and two-residue substituted derivatives	344	49				
CNP: C-type natriuretic peptide, named generically in the text (GLSKGCFGLKLDRIGSMSGLGC; disulfide 6-22 (inferred); ends not checked; UniProt P23582 105-126, looked up) [reference compound]				10	several times as much		
CC[C@H](C)[C@@H]1NC(=O)[C@H](CCCNC(=N)N)NC(=O)[C@H](CC(=O)O)NC(=O)[C@H](CC(C)C)NC(=O)[C@H](CCCCN)NC(=O)[C@H](CC(C)C)NC(=O)CNC(=O)[C@H](Cc2ccccc2)NC(=O)[C@@H](N)CSSC[C@@H](C(=O)N[C@@H](CC(N)=O)C(=O)N[C@@H](CO)C(=O)N[C@@H](Cc2ccccc2)C(=O)N[C@@H](CCCNC(=N)N)C(=O)N[C@@H](Cc2ccc(O)cc2)C(=O)O)NC(=O)CNC(=O)[C@H](CC(C)C)NC(=O)CNC(=O)[C@H](CO)NC(=O)[C@H](CCC(N)=O)NC(=O)[C@H](C)NC(=O)CNC1=O [Compound 15, [Leu10, Lys11, Leu12] α-hANP (7-28)] (H-CFGLKLDRIGAQSGLGCNSFRY-OH; disulfide 1-17)	strong cGMP producing activity at a substantially comparable level to CNP-22	559	72			4-6 times	
CC[C@H](C)[C@@H]1NC(=O)[C@H](CCCNC(=N)N)NC(=O)[C@H](CC(=O)O)NC(=O)[C@H](CCSC)NC(=O)[C@H](CCCNC(=N)N)NC(=O)CNC(=O)CNC(=O)[C@H](Cc2ccccc2)NC(=O)[C@@H](NC(=O)CNC(=O)[C@H](CCCCN)NC(=O)[C@H](CO)NC(=O)[C@H](CC(C)C)NC(=O)CN)CSSC[C@@H](C(=O)N[C@@H](CC(N)=O)C(=O)N[C@@H](CO)C(=O)N[C@@H](Cc2ccccc2)C(=O)N[C@@H](CCCNC(=N)N)C(=O)N[C@@H](Cc2ccc(O)cc2)C(=O)O)NC(=O)[C@H](CCC(=O)O)NC(=O)[C@H](CC(C)C)NC(=O)[C@H](CCC(=O)O)NC(=O)[C@H](CO)NC(=O)[C@H](CCC(N)=O)NC(=O)[C@H](C)NC(=O)CNC1=O [Compound 2, H-Gly-Leu-Ser-Lys-Gly-Cys-Phe-Gly-Gly-Arg-Met-Asp-Arg-Ile-Gly-Ala-Gln-Ser- Glu-Leu-Glu-Cys-Asn-Ser-Phe-Arg-Tyr-OH] (H-GLSKGCFGGRMDRIGAQSELECNSFRY-OH; disulfide 6-22)	only a weak cGMP producing activity at a level comparable to α-hANP	147	38				
CC[C@H](C)[C@@H]1NC(=O)[C@H](CCCNC(=N)N)NC(=O)[C@H](CC(=O)O)NC(=O)[C@H](CCSC)NC(=O)[C@H](CCCNC(=N)N)NC(=O)CNC(=O)CNC(=O)[C@H](Cc2ccccc2)NC(=O)[C@@H](NC(=O)CNC(=O)[C@H](CCCCN)NC(=O)[C@H](CO)NC(=O)[C@H](CC(C)C)NC(=O)CN)CSSC[C@@H](C(=O)O)NC(=O)CNC(=O)[C@H](CC(C)C)NC(=O)CNC(=O)[C@H](CO)NC(=O)[C@H](CCSC)NC(=O)[C@H](CO)NC(=O)CNC1=O [Compound 14] (H-GLSKGCFGGRMDRIGSMSGLGC-OH; disulfide 6-22)	marked drop in activity	23	17				
hCNP-53: human CNP-53, CNP-22 with 31 amino acid residues attached to the N-terminus (DLRVDTKSRAAWARLLQEHPNARKYKGANKKGLSKGCFGLKLDRIGSMSGLGC; disulfide 37-53 (inferred); ends not checked; UniProt P23582 74-126, looked up) [reference compound]		458	71	10			suppress the DNA synthesis of rat VSMC in a dose-dependent manner
CC[C@H](C)[C@@H]1NC(=O)[C@H](CCCNC(=N)N)NC(=O)[C@H](CC(=O)O)NC(=O)[C@H](CC(C)C)NC(=O)[C@H](CCCCN)NC(=O)[C@H](CC(C)C)NC(=O)CNC(=O)[C@H](Cc2ccccc2)NC(=O)[C@@H](N)CSSC[C@@H](C(=O)O)NC(=O)CNC(=O)[C@H](CC(C)C)NC(=O)CNC(=O)[C@H](CO)NC(=O)[C@H](CCSC)NC(=O)[C@H](CO)NC(=O)CNC1=O [Compound 5, CFGLKLDRIGSMSGLGC] (H-CFGLKLDRIGSMSGLGC-OH; disulfide 1-17)	strong cGMP producing activity at a comparable level to that exhibited by CNP-22	616	65				
